Like-named read-outs stand apart in the source and are kept apart here.
Columns and labels:
[1] = system: HIV-1 IIIB isolate; test: HIV-1 inhibitory effect, p24 antigen capture ELISA in acutely infected 174XCEM cells; format: cell-based; conditions: for inhibition of HIV infection (FIG. 7) / anti-HIV-1 activity (p24 OD, FIG. 6): 1 μg/ml; for dose-related anti-HIV effect (FIG. 8): doses of 0.5, 1 .5, and 2 μg/ml; for anti-HIV-1 activity (p24 OD, FIG. 6): 4 days, compared with other betulinol derivatives
[2] = system: Human T-B hybridoma cell line 174XCEM; test: cell viability by trypan blue dye exclusion; format: cell-based; conditions: for cell toxicity: doses of 0.5, 1 .5, and 2 μg/ml; for effect on total cell number or cell viability: trypan blue at four days and seven days
Text: Dimethyl sulfoxide (“DMSO”) buffer was used as “no virus” control.

[3] = system: another HIV-1 isolate; test: effect on 174XCEM cells chronically infected with another HIV-1 isolate; format: cell-based; conditions: single dose 1 μg/ml
Method: Agents were also evaluated for an effect on 174XCEM cells chronically infected with another HIV-1 isolate.

[4] = system: HIV; conditions: Sun et al., J. Med. Chem. 41:4648-4657 (1998); cited from earlier work
[5] = system: AZT-resistant HIV strain; test: anti-HIV activity against AZT-resistant patient isolates in MT-2 cells; format: cell-based
Text: These isolates were used to infect MT-2 cells in vitro.

[6] = solubility in DMSO diluted with culture medium, GC against standard curve; format: physicochemical
Method: The residue was dissolved in chloroform analyzed on GC.
Ethyl ether was then evaporated.

[7] = solubilization in PBS containing human γ-globulin, human albumin and ethanol; format: physicochemical; conditions: 1 × 10^−3 mol/L
[8] = solubility in human serum; format: physicochemical; conditions: 1.34 mg in 31 μL ethanol and 700 μL human serum
[9] = tolerability of solubilized drug in mice with prostate cancer cell xenografts; format: in vivo; conditions: final concentration 22% ethanol and 2×10^−3 mol per liter of betulonic acid
[10] = system: cells; conditions: cited from earlier work
[11] = culture medium containing 20% DMSO, calculated from amount and volume

SMILES: C=C(C)[C@@H]1CC[C@]2(COC(C)=O)CC[C@]3(C)[C@H](CC[C@@H]4[C@@]5(C)CC[C@H](OC(C)=O)C(C)(C)[C@@H]5CC[C@]43C)[C@@H]12 [betulin diacetate]
- inhibition of HIV infection (FIG. 7) [1]: 57%
- dose-related anti-HIV effect (FIG. 8) [1]: Progressive increases in anti-HIV effect
- cell toxicity [2]: without cell toxicity
- inhibition in chronically infected cells [3]: 20%
- therapeutic index [4]: low therapeutic index

SMILES: C=C(C)[C@@H]1CC[C@]2(COC(C)=O)CC[C@]3(C)[C@H](CC[C@@H]4[C@@]5(C)CC[C@H](O)C(C)(C)[C@@H]5CC[C@]43C)[C@@H]12 [28-acetoxy betulin]
- anti-HIV-1 activity (p24 OD, FIG. 6) [1]: superior
- dose-related anti-HIV-1 activity (FIG. 10) ([1]; doses 0.5, 1, 1.5, and 2 μg/ml): comparable anti-HIV-1 activity
- effect on total cell number or cell viability [2]: no effect

SMILES: C=C(C)[C@@H]1CC[C@]2(C=O)CC[C@]3(C)[C@H](CC[C@@H]4[C@@]5(C)CCC(=O)C(C)(C)[C@@H]5CC[C@]43C)[C@@H]12 [betulone aldehyde]
- inhibition of HIV infection (FIG. 7) [1]: 37%
- dose-related anti-HIV effect (FIG. 8) [1]: Progressive increases in anti-HIV effect
- cell toxicity [2]: without cell toxicity
- inhibition in chronically infected cells [3]: minimal effect

SMILES: C=C(C)C1CCC2(CO)CC[C@]3(C)[C@H](CC[C@@H]4[C@@]5(C)CCC(O)C(C)(C)[C@@H]5CC[C@]43C)C12 (stereo partly drawn) [betulinol, lup-20(29)-ene-3β, 28-diol]
- inhibition of HIV infection (FIG. 7) [1]: no effect
- dose-related anti-HIV effect (FIG. 9) ([1]; doses 1.3, 1.6, and 2 μg/ml): increasing anti-HIV effect
- inhibition in chronically infected cells [3]: minimal effect

SMILES: Cc1cn([C@H]2C[C@H](N=[N+]=[N-])[C@@H](CO)O2)c(=O)[nH]c1=O [AZT, 3′-azido-3′-deoxythymidine, reference compound]
- inhibition in the HIV infection ([5]; day 8): ineffective

SMILES: C=C(C)C1CCC2(C(=O)NCCCCC(NC(=O)C(CCCCNC(=O)C34CCC(C(=C)C)C3[C@@H]3CC[C@H]5[C@]6(C)CCC(=O)C(C)(C)[C@H]6CC[C@]5(C)[C@@]3(C)CC4)NC(=O)OC(C)(C)C)C(=O)O)CC[C@]3(C)[C@H](CC[C@@H]4[C@@]5(C)CCC(=O)C(C)(C)[C@@H]5CC[C@]43C)C12 (stereo partly drawn) [Boc-Dimer]
- Concentration of drug (mg/mL) [6, 11]: 0.6 mg/mL
- Concentration of drug (mol/L) [6, 11]: 0.0005 mol/L

SMILES: C=C(C)[C@@H]1CC[C@]2(CO)CC[C@]3(C)[C@H](CC[C@@H]4[C@@]5(C)CC[C@H](OC(C)=O)C(C)(C)[C@@H]5CC[C@]43C)[C@@H]12 [3-acetoxy betulin]
- anti-HIV-1 activity (p24 OD, FIG. 6) [1]: superior
- effect on total cell number or cell viability [2]: no effect

SMILES: C=C(C)C1CCC2(C(=O)O)CC[C@]3(C)[C@H](CC[C@@H]4[C@@]5(C)CCC(=O)C(C)(C)[C@@H]5CC[C@]43C)C12 (stereo partly drawn) [betulonic acid]
- amount of betulonic acid dissolved ([6]; out of 3 mg, 1% DMSO in culture medium containing 10% FBS, nominal 0.5 mg/mL): 0.4 mg
- Observation ([7]; γ-globulin in PBS 0 mL, albumin in PBS 2.50 mL, ethanol 280 μL): Complete
- Observation ([7]; γ-globulin in PBS 0.32 mL, albumin in PBS 2.85 mL, ethanol 352 μL): Clear
- Observation ([7]; γ-globulin in PBS 0.69 mL, albumin in PBS 2.07 mL, ethanol 308 μL): Almost Clear
- Observation ([7]; γ-globulin in PBS 1.48 mL, albumin in PBS 0.49 mL, ethanol 220 μL): Cloudy
- Observation ([7]; γ-globulin in PBS 1.48 mL, albumin in PBS 1.48 mL, ethanol 330 μL): Little Cloudy
- Observation ([7]; γ-globulin in PBS 2.50 mL, albumin in PBS 0 mL, ethanol 280 μL): Suspension
- Observation [8]: Clear Solution
- tolerability [9]: well tolerated
- inhibition in the HIV infection ([5]; day 5): 56%
- inhibition in the HIV infection ([5]; day 8): 44%
- cytotoxicity [10]: cytotoxic

SMILES: C=C(C)C1CCC2(C(=O)NCCCCC(NC(=O)OC(C)(C)C)C(=O)O)CC[C@]3(C)[C@H](CC[C@@H]4[C@@]5(C)CCC(=O)C(C)(C)[C@@H]5CC[C@]43C)C12 (stereo partly drawn) [Boc-Monomer]
- Concentration of drug (mg/mL) [6]: 0.7 mg/mL
- tolerability [9]: well tolerated

SMILES: C=C(C)C1CCC2(COC)CCC3(C)C(CCC4C5(C)CCC(OC)C(C)(C)C5CCC43C)C12 (stereo not drawn) [betulin dimethyl ether]
- anti-HIV-1 activity (p24 OD, FIG. 6) [1]: superior
- effect on total cell number or cell viability [2]: no effect
